Laboratory results from US9376442B2, “Methylpyrrolopyrimidinecarboxamides” (Takeda GmbH, priority 2009, dated 2016).

Target: T1, PDE5A1 (Homo sapiens, UniProt O76074)
T1 construct: from tissue; host or cells: human platelets from fresh donor blood (10,000 x g supernatant of sonicated lysate)
Test: Inhibition of type 5 phosphodiesterase (PDE5) activity, modified SPA test with human platelet lysate
Type: biochemical
Details: 0.5 μM cGMP, read-out: PDE5A1 inhibitory values [measured as −log IC50 (mol/l)] (converted)
Procedure: Method for Measuring Inhibition of the Type 5 Phosphodiesterase (PDE5) Activity:
As a source for human PDE5, platelets are used. For that purpose, 150 ml fresh blood from human donors anticoagulated with citrate [final concentration 0.3% (w/v)] is centrifuged at 200 g for 10 min to obtain the so-called platelet-rich-plasma (PRP) as a supernatant. 1/10 volume of ACD solution (85 mM Na3-citrate, 111 mM D-glucose, 71 mM citric acid, pH 4.4) is added to 9/10 volume of PRP. After centrifugation (1,400 g, 10 min) the cell pellet is resuspended in 3 ml homogenization buffer (NaCl 140 mM, KCl 3.8 mM, EGTA (ethylene glycol tetraacetic acid) 1 mM, MgCl2 1 mM, Tris-HCl 20 mM, beta-mercaptoethanol 1 mM, pH 8.2) plus protease-inhibitor mix giving rise to the final concentrations of 0.5 mM Pefablock (Roche), 10 μM Leupeptin, 5 μM Trypsininhibitor, 2 mM Benzamidin and 10 μM Pepstatin A. The suspension is sonified and thereafter centrifuged for 15 min at 10,000 g. The resulting supernatant (platelet lysate) is used for enzymatic testings.
PDE5A1 activity is inhibited by the compounds of the present subject matter in a modified SPA (scintillation proximity assay) test, supplied by Amersham Biosciences (see procedural instructions “phosphodiesterase [3H]cAMP SPA enzyme assay, code TRKQ 7090”), carried out in 96-well microtitre plates (MTP's). The test volume is 100 μl and contains 20 mM Tris buffer (pH 7.4), 0.1 mg of BSA (bovine serum albumin)/ml, 5 mM Mg^2+, 1 μM motapizone, 10 nM PDE2 inhibitor 2-(3,4-dimethoxybenzyl)-7-[(1R,2R)-2-hydroxy-1-(2-phenylethyl)propyl]-5-methylimidazo[5,1-f][1,2,4]triazin-4(3H)-one, 0.5 μM cGMP (cyclic guanosine monophosphate) (including about 50,000 cpm of [3H]cGMP as a tracer), 1 μl of the respective compound dilution in dimethylsulfoxide (DMSO) and sufficient PDE5-containing platelet lysat (10,000×g supernatant, see above) to ensure that 10-20 wt % of the cGMP is converted under the said experimental conditions. […] After a preincubation of 5 min at 37° C., the reaction is started by adding the substrate (cGMP) and the assay is incubated for a further 15 min; after that, it is stopped by adding SPA beads (50 μl). In accordance with the manufacturer's instructions, the SPA beads had previously been resuspended in water, but are then diluted 1:3 (v/v) in water; the diluted solution also contains 3 mM […] (IBMX) to ensure a complete PDE activity stop. After the beads have been sedimented (>30 min), the MTP's are analyzed in commercially available luminescence detection devices. The corresponding IC50 values of the compounds for the inhibition of PDE activity are determined from the concentration-effect curves by means of non-linear regression.

| Structure (SMILES) | IC50 |
| --- | --- |
| Cc1[nH]c2c(-c3ccc(F)cc3OCC3CC3)ncnc2c1C(=O)N[C@@H]1CCN(C(=O)[C@H](C)O)C1 [Example F18, 4-[2-(cyclopropylmethoxy)-4-fluorophenyl]-N-{(3R)-1-[(2S)-2-hydroxypropanoyl]pyrrolidin-3-yl}-6-methyl-5H-pyrrolo[3,2-d]pyrimidine-7-carboxamide] | < 1 nM |
| COc1cc(OCC2CC2)c(-c2ncnc3c(C(=O)N[C@H]4CC[C@H](NC(=O)[C@H](C)O)CC4)c(C)[nH]c23)cc1F [Example F86, 4-[2-(Cyclopropylmethoxy)-5-fluoro-4-methoxyphenyl]-N-(trans-4-{[(25)-2-hydroxypropanoyl]amino}cyclohexyl)-6-methyl-5H-pyrrolo[3,2-d]pyrimidine-7-carboxamide] | < 1 nM |
| CCC(=O)N1CC[C@@H](NC(=O)c2c(C)[nH]c3c(-c4cc(F)ccc4OCC4CC4)ncnc23)C1 [Example E47, 4-[2-(Cyclopropylmethoxy)-5-fluorophenyl]-6-methyl-N-[(3R)-1-propanoylpyrrolidin-3-yl]-5H-pyrrolo[3,2-d]pyrimidine-7-carboxamide] | 1 to 10 nM |
| Cc1cc(-c2ncnc3c(C(=O)N[C@@H]4CCN(C(=O)CO)C[C@H]4O)c(C)[nH]c23)c(OCC2CC2)cc1F (relative stereo) [Example F81, 4-[2-(Cyclopropylmethoxy)-4-fluoro-5-methylphenyl]-N-[(3R*,4R*)-3-hydroxy-1-(hydroxyacetyl)piperidin-4-yl]-6-methyl-5H-pyrrolo[3,2-d]pyrimidine-7-carboxamide] | < 1 nM |
| Cc1cc(-c2ncnc3c(C(=O)N[C@H]4CC[C@H](NC(=O)CO)CC4)c(C)[nH]c23)c(OCC2CC2)cc1F [Example F77, 4-[2-(Cyclopropylmethoxy)-4-fluoro-5-methylphenyl]-N-{trans-4-[(hydroxyacetyl)amino]cyclohexyl}-6-methyl-5H-pyrrolo[3,2-d]pyrimidine-7-carboxamide] | < 1 nM |
| COc1ccc(OCC2CC2)c(-c2ncnc3c(C(=O)N[C@@H]4CCN(C(=O)CO)C[C@H]4O)c(C)[nH]c23)c1 (relative stereo) [Example F49, 4-[2-(Cyclopropylmethoxy)-5-methoxyphenyl]-N-[(3R*,4R*)-3-hydroxy-1-(hydroxyacetyl)piperidin-4-yl]-6-methyl-5H-pyrrolo[3,2-d]pyrimidine-7-carboxamide] | < 1 nM |
| COCC(=O)N[C@H]1CC[C@@H](NC(=O)c2c(C)[nH]c3c(-c4cc(F)c(OC)cc4OCC4CC4)ncnc23)CC1 [Example E140, 4-[2-(Cyclopropylmethoxy)-5-fluoro-4-methoxyphenyl]-N-{cis-4-[(methoxyacetyl)amino]cyclohexyl}-6-methyl-5H-pyrrolo[3,2-d]pyrimidine-7-carboxamide] | < 1 nM |
| CCOC(=O)N[C@H]1CC[C@@H](NC(=O)c2c(C)[nH]c3c(-c4cc(F)c(OC)cc4OCC4CC4)ncnc23)CC1 [Example E141, Ethyl {cis-4-[({4-[2-(cyclopropylmethoxy)-5-fluoro-4-methoxyphenyl]-6-methyl-5H-pyrrolo[3,2-d]pyrimidin-7-yl}carbonyl)amino]cyclohexyl}carbamate] | < 1 nM |
| COc1cc(-c2ncnc3c(C(=O)NC4CCN(C(C)=O)CC4)c(C)[nH]c23)c(OCC2CC2)cc1F [Example E102, N-(1-Acetylpiperidin-4-yl)-4-[2-(cyclopropylmethoxy)-4-fluoro-5-methoxyphenyl]-6-methyl-5H-pyrrolo[3,2-d]pyrimidine-7-carboxamide] | < 1 nM |
| CCOc1ccc(F)cc1-c1ncnc2c(C(=O)NC3CCN(C(=O)CO)CC3)c(C)[nH]c12 [Example F32] | 1 to 10 nM |
| COCC(=O)N[C@H]1CC[C@H](NC(=O)c2c(C)[nH]c3c(-c4cc(C(C)=O)ccc4OCC4CC4)ncnc23)CC1 [Example E168, 4-[5-Acetyl-2-(cyclopropylmethoxy)phenyl]-N-{trans-4-[(methoxyacetyl)amino]cyclohexyl}-6-methyl-5H-pyrrolo[3,2-d]pyrimidine-7-carboxamide] | < 1 nM |
| Cc1cc(-c2ncnc3c(C(=O)N[C@H]4CC[C@@H](NC(=O)CO)CC4)c(C)[nH]c23)c(OCC2CC2)cc1F [Example F79, 4-[2-(Cyclopropylmethoxy)-4-fluoro-5-methylphenyl]-N-{cis-4-[(hydroxyacetyl)amino]cyclohexyl}-6-methyl-5H-pyrrolo[3,2-d]pyrimidine-7-carboxamide] | < 1 nM |
| Cc1[nH]c2c(-c3ccc(F)cc3OCC3CC3)ncnc2c1C(=O)N[C@H]1CCN(C(=O)CO)C[C@@H]1O (relative stereo) [Example F21, 4-[2-(Cyclopropylmethoxy)-4-fluorophenyl]-N-[(3S*,4S*)-3-hydroxy-1-(hydroxyacetyl)piperidin-4-yl]-6-methyl-5H-pyrrolo[3,2-d]pyrimidine-7-carboxamide] | 1 to 10 nM |
| CC(=O)N1CCC(NC(=O)c2c(C)[nH]c3c(-c4ccc(F)cc4OCC4CC4)ncnc23)CC1 [Example E19, N-(1-acetylpiperidin-4-yl)-4-[2-(cyclopropylmethoxy)-4-fluorophenyl]-6-methyl-5H-pyrrolo[3,2-d]pyrimidine-7-carboxamide] | < 1 nM |
| COCC(=O)N1C[C@@H](O)[C@H](NC(=O)c2c(C)[nH]c3c(-c4c(OCC5CC5)ccc5c4OCO5)ncnc23)C1 (relative stereo) [Example E18, 4-[5-(Cyclopropylmethoxy)-1,3-benzodioxol-4-yl]-N-[(3R*,4R*)-4-hydroxy-1-(methoxyacetyl)pyrrolidin-3-yl]-6-methyl-5H-pyrrolo[3,2-d]pyrimidine-7-carboxamide] | < 1 nM |
| COc1ccc(-c2ncnc3c(C(=O)NC4CN(C(=O)C(C)O)CC4O)c(C)[nH]c23)c(OCC2CC2)c1 (mixture of isomers) [Example F40, Diastereomeric mixture of 4-[2-(cyclopropylmethoxy)-4-methoxyphenyl]-N{(3R,4R)-4-hydroxy-1-[(2S)-2-hydroxypropanoyl]pyrrolidin-3-yl}-6-methyl-5H-pyrrolo[3,2-d]pyrimidine-7-carboxamide and 4-[2-(cyclopropylmethoxy)-4-methoxyphenyl]-N-{(3S,4S)-4-hydroxy-1-[(2S)-2-hydroxypropanoyl]pyrrolidin-3-yl}-6-methyl-5H-pyrrolo[3,2-d]pyrimidine-7-carboxamide] | < 1 nM |
| CCOc1ccc(F)cc1-c1ncnc2c(C(=O)NC3CCN(C(=O)[C@H](C)O)CC3)c(C)[nH]c12 [Example F33, 4-(2-Ethoxy-5-fluorophenyl)-N-{1-[(2S)-2-hydroxypropanoyl]piperidin-4-yl}-6-methyl-5H-pyrrolo[3,2-d]pyrimidine-7-carboxamide] | 1 to 10 nM |
| COCC(=O)N[C@H]1CC[C@@H](NC(=O)c2c(C)[nH]c3c(-c4ccc(F)cc4OCC4CC4)ncnc23)CC1 [Example E27, 4-[2-(Cyclopropylmethoxy)-4-fluorophenyl]-N-{cis-4-[(methoxyacetyl)amino]cyclohexyl}-6-methyl-5H-pyrrolo[3,2-d]pyrimidine-7-carboxamide] | < 1 nM |
| CCC(=O)N[C@H]1CC[C@H](NC(=O)c2c(C)[nH]c3c(-c4c(OCC5CC5)ccc5c4OCO5)ncnc23)CC1 [Example E6, 4-[5-(Cyclopropylmethoxy)-1,3-benzodioxol-4-yl]-6-methyl-N-[trans-4-(propionylamino)cyclohexyl]-5H-pyrrolo[3,2-d]pyrimidine-7-carboxamide] | < 1 nM |
| CCC(=O)N1CCC(NC(=O)c2c(C)[nH]c3c(-c4c(OCC5CC5)ccc5c4OCO5)ncnc23)CC1 [Example E2, 4-[5-(Cyclopropylmethoxy)-1,3-benzodioxol-4-yl]-6-methyl-N-(1-propionylpiperidin-4-yl)-5H-pyrrolo[3,2-d]pyrimidine-7-carboxamide] | < 1 nM |
| COCC(=O)N1CC[C@@H](NC(=O)c2c(C)[nH]c3c(-c4cc(C)c(F)cc4OCC4CC4)ncnc23)[C@H](O)C1 (relative stereo) [Example E130, 4-[2-(Cyclopropylmethoxy)-4-fluoro-5-methylphenyl]-N-[(3R*,4R*)-3-hydroxy-1-(methoxyacetyl)piperidin-4-yl]-6-methyl-5H-pyrrolo[3,2-d]pyrimidine-7-carboxamide] | < 1 nM |
